Each compound was assayed against T1, Recombinant (1-346) HPK1 (h) (Homo sapiens, UniProt Q92918) (assay: HPK1 Human STE Kinase Enzymatic Radiometric Assay). Settings: read-out: HPK1 IC50 nM Range*.
T1 construct: Recombinant (1-346) HPK1 (h) is incubated with 8 mM MOPS pH 7.0
T1 sequence (Q92918 1-346): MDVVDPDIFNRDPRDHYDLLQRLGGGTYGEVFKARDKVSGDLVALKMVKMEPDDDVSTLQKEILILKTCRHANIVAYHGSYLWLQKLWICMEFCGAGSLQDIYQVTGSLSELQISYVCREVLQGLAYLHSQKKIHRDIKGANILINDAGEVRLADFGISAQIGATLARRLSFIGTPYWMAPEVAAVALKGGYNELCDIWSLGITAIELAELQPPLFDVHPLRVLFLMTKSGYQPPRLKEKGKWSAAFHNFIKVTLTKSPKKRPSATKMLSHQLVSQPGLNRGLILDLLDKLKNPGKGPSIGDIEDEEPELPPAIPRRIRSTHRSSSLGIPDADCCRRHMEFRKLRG
Type: biochemical
Experimental: A stock solution of 10 mM of test compound is prepared in DMSO. The compound plate was prepared by 3-fold and 9-point serial dilutions. […] The reaction is initiated by The addition of the Mg/ATP mix. After incubation for 40 minutes at RT, the reaction is stopped by the addition of phosphoric acid to a concentration of 0.5%.

CN(C)Cc1cc(-c2cc(-c3cc4c(cc3F)C(=O)NCC4)c(N)nc2F)ccc1N1CCN(C2CCC2)CC1 [I-462, 6-(2-amino-5-(4-(4-cyclobutylpiperazin-1-yl)-3-((dimethylamino)methyl)phenyl)-6-fluoropyridin-3-yl)-7-fluoro-3,4-dihydroisoquinolin-1(2H)-one] and CN(C)Cc1cc(-c2cc(-c3cc4c(cc3F)C(=O)NCC4)c(N)nc2F)ccc1N1CCSCC1 [I-488, 6-(2-amino-5-(3-((dimethylamino)methyl)-4-thiomorpholinophenyl)-6-fluoropyridin-3-yl)-7-fluoro-3,4-dihydroisoquinolin-1(2H)-one] fall in the same range of IC50: 0.1 to 10 nM for the first, 0.1 to 10 nM for the second.

CN1CCc2c(cccc2-c2cc(-c3ccc4c(c3)CCNC4=O)c(N)nc2F)C1 [I-463, 6-(2-amino-6-fluoro-5-(2-methyl-1,2,3,4-tetrahydroisoquinolin-5-yl)pyridin-3-yl)-3,4-dihydroisoquinolin-1(2H)-one] and CN1CCc2c(cccc2-c2cc(-c3cc4c(cc3F)C(=O)NCC4)c(N)nc2F)C1 [I-464, 6-(2-amino-6-fluoro-5-(2-methyl-1,2,3,4-tetrahydroisoquinolin-5-yl)pyridin-3-yl)-7-fluoro-3,4-dihydroisoquinolin-1(2H)-one] cannot be ordered by IC50: > 1000 nM for the first, > 1000 nM for the second.

First: Cc1nc2cc(-c3cc(-c4ccc(N5CCN(C(C)C)CC5)cc4)c(F)nc3N)ccc2c(=O)n1N [I-465, 3-amino-7-(2-amino-6-fluoro-5-(4-(4-isopropylpiperazin-1-yl)phenyl)pyridin-3-yl)-2-methylquinazolin-4(3H)-one]
Second: CC(C)N1CCN(c2ccc(-c3cc(-c4ccc5c(=O)[nH]cc(Cl)c5c4)c(N)nc3F)cc2)CC1 [I-466, 6-(2-amino-6-fluoro-5-(4-(4-isopropylpiperazin-1-yl)phenyl)pyridin-3-yl)-4-chloroisoquinolin-1(2H)-one]
The IC50 of the first is higher: 101 to 1000 nM for the first, 11 to 100 nM for the second.

Compared with Cc1nc2cc(-c3cc(-c4ccc(N5CCN(CCCC(F)F)CC5)cc4)c(F)nc3N)cc(F)c2c(=O)[nH]1 [I-467, 7-(2-amino-5-(4-(4-(4,4-difluorobutyl)piperazin-1-yl)phenyl)-6-fluoropyridin-3-yl)-5-fluoro-2-methylquinazolin-4(3H)-one], Cc1nc2cc(-c3cc(-c4ccc(N5CCN(CCC(F)F)CC5)cc4)c(F)nc3N)cc(F)c2c(=O)[nH]1 [I-485, 7-(2-amino-5-(4-(4-(3,3-difluoropropyl)piperazin-1-yl)phenyl)-6-fluoropyridin-3-yl)-5-fluoro-2-methylquinazolin-4(3H)-one] is higher in IC50: 0.1 to 10 nM for the first, 11 to 100 nM for the second. The first is the more potent here.

Cc1nc2cc(-c3cc(-c4ccc([C@]56C[C@H]5CN(C)C6)cc4)c(F)nc3N)ccc2c(=O)[nH]1 [I-468, 7-(2-amino-6-fluoro-5-(4-((1S,5R)-3-methyl-3-azabicyclo[3.1.0]hexan-1-yl)phenyl)pyridin-3-yl)-2-methylquinazolin-4(3H)-one] and Cc1nc2cc(-c3cc(-c4ccc([C@]56C[C@H]5CN(C)C6)cc4)c(F)nc3N)cc(F)c2c(=O)[nH]1 [I-469, 7-(2-amino-6-fluoro-5-(4-((1S,5R)-3-methyl-3-azabicyclo[3.1.0]hexan-1-yl)phenyl)pyridin-3-yl)-5-fluoro-2-methylquinazolin-4(3H)-one] fall in the same range of IC50: 11 to 100 nM for the first, 11 to 100 nM for the second.

CN1C[C@@H]2C[C@]2(c2ccc(-c3cc(-c4ccc5c(=O)[nH]cc(F)c5c4)c(N)nc3F)cc2)C1 [I-470, 6-(2-amino-6-fluoro-5-(4-((1S,5R)-3-methyl-3-azabicyclo[3.1.0]hexan-1-yl)phenyl)pyridin-3-yl)-4-fluoroisoquinolin-1(2H)-one] and Cc1c[nH]c(=O)c2ccc(-c3cc(-c4ccc([C@]56C[C@H]5CN(C)C6)cc4)c(F)nc3N)cc12 [I-471, 6-(2-amino-6-fluoro-5-(4-((1S,5R)-3-methyl-3-azabicyclo[3.1.0]hexan-1-yl)phenyl)pyridin-3-yl)-4-methylisoquinolin-1(2H)-one] fall in the same range of IC50: 0.1 to 10 nM for the first, 0.1 to 10 nM for the second.

Cc1nc2cc(-c3cc(-c4ccc(N5CCN(C6CCC6)CC5)cc4)c(F)nc3N)ccc2c(=O)[nH]1 [I-472, 7-(2-amino-5-(4-(4-cyclobutylpiperazin-1-yl)phenyl)-6-fluoropyridin-3-yl)-2-methylquinazolin-4(3H)-one] and Cc1nc2cc(-c3cc(-c4ccc(N5CCN(C6CCC6)CC5)cc4)c(F)nc3N)cc(F)c2c(=O)[nH]1 [I-473, 7-(2-amino-5-(4-(4-cyclobutylpiperazin-1-yl)phenyl)-6-fluoropyridin-3-yl)-5-fluoro-2-methylquinazolin-4(3H)-one] fall in the same range of IC50: 0.1 to 10 nM for the first, 0.1 to 10 nM for the second.

Cc1nc2cc(-c3cc(-c4ccc(N5CCOCC5)c(CN(C)C)c4)c(F)nc3N)ccc2c(=O)[nH]1 [I-474, 7-(2-amino-5-(3-((dimethylamino)methyl)-4-morpholinophenyl)-6-fluoropyridin-3-yl)-2-methylquinazolin-4(3H)-one] and Cc1nc2cc(-c3cc(-c4ccc(N5CCOCC5)c(CN(C)C)c4)c(F)nc3N)cc(F)c2c(=O)[nH]1 [I-475, 7-(2-amino-5-(3-((dimethylamino)methyl)-4-morpholinophenyl)-6-fluoropyridin-3-yl)-5-fluoro-2-methylquinazolin-4(3H)-one] fall in the same range of IC50: 11 to 100 nM for the first, 11 to 100 nM for the second.

Nc1nc(F)c(-c2ccc(N3CCN(CCC(F)F)CC3)cc2)cc1-c1ccc2c(c1)CCNC2=O [I-476, 6-(2-amino-5-(4-(4-(3,3-difluoropropyl)piperazin-1-yl)phenyl)-6-fluoropyridin-3-yl)-3,4-dihydroisoquinolin-1(2H)-one] and Nc1nc(F)c(-c2ccc(N3CCN(CCC(F)F)CC3)cc2)cc1-c1cc2c(cc1F)C(=O)NCC2 [I-477, 6-(2-amino-5-(4-(4-(3,3-difluoropropyl)piperazin-1-yl)phenyl)-6-fluoropyridin-3-yl)-7-fluoro-3,4-dihydroisoquinolin-1(2H)-one] fall in the same range of IC50: 0.1 to 10 nM for the first, 0.1 to 10 nM for the second.

Nc1nc(F)c(-c2ccc(C3=CCOCC3)cc2C2CNC(=O)C2)cc1-c1cc2c(cc1F)C(=O)NCC2 (centres unmarked) [I-478, 6-(2-amino-5-(4-(3,6-dihydro-2H-pyran-4-yl)-2-(5-oxopyrrolidin-3-yl)phenyl)-6-fluoropyridin-3-yl)-7-fluoro-3,4-dihydroisoquinolin-1(2H)-one] and Nc1nc(F)c(-c2ccc(C3CCOCC3)cc2C2CNC(=O)C2)cc1-c1cc2c(cc1F)C(=O)NCC2 (centres unmarked) [I-479, 6-(2-amino-6-fluoro-5-(2-(5-oxopyrrolidin-3-yl)-4-(tetrahydro-2H-pyran-4-yl)phenyl)pyridin-3-yl)-7-fluoro-3,4-dihydroisoquinolin-1(2H)-one] cannot be ordered by IC50: > 1000 nM for the first, > 1000 nM for the second.

Compared with CN(C)Cc1cc(-c2cc(-c3ccc4c(=O)[nH]cc(F)c4c3)c(N)nc2F)ccc1N1CCOCC1 [I-480, 6-(2-amino-5-(3-((dimethylamino)methyl)-4-morpholinophenyl)-6-fluoropyridin-3-yl)-4-fluoroisoquinolin-1(2H)-one], CN(C)Cc1cc(-c2cc(-c3cc(F)c4c(c3)CCNC4=O)c(N)nc2F)ccc1N1CCOCC1 [I-486, 6-(2-amino-5-(3-((dimethylamino)methyl)-4-morpholinophenyl)-6-fluoropyridin-3-yl)-8-fluoro-3,4-dihydroisoquinolin-1(2H)-one] is lower in IC50: 11 to 100 nM for the first, 0.1 to 10 nM for the second. The second is the more potent here.

CC(C)N1CCN(c2ccc(-c3cc(-c4cc(F)c5c(=O)[nH]cc(F)c5c4)c(N)nc3F)cc2)CC1 [I-482, 6-(2-amino-6-fluoro-5-(4-(4-isopropylpiperazin-1-yl)phenyl)pyridin-3-yl)-4,8-difluoroisoquinolin-1(2H)-one] and CC(C)N1CCN(c2ccc(-c3cc(-c4cc(F)c5c(=O)[nH]cc(Cl)c5c4)c(N)nc3F)cc2)CC1 [I-489, 6-(2-amino-6-fluoro-5-(4-(4-isopropylpiperazin-1-yl)phenyl)pyridin-3-yl)-4-chloro-8-fluoroisoquinolin-1(2H)-one] fall in the same range of IC50: 0.1 to 10 nM for the first, 0.1 to 10 nM for the second.

Nc1nc(F)c(-c2ccc(N3CCN(CC4CC4)CC3)cc2)cc1-c1cc(F)c2c(=O)[nH]cc(F)c2c1 [I-483, 6-(2-amino-5-(4-(4-(cyclopropylmethyl)piperazin-1-yl)phenyl)-6-fluoropyridin-3-yl)-4,8-difluoroisoquinolin-1(2H)-one] and Cc1nc2cc(-c3cc(-c4ccc(N5CCN(CCCC(F)F)CC5)cc4)c(F)nc3N)ccc2c(=O)[nH]1 [I-484, 7-(2-amino-5-(4-(4-(4,4-difluorobutyl)piperazin-1-yl)phenyl)-6-fluoropyridin-3-yl)-2-methylquinazolin-4(3H)-one] fall in the same range of IC50: 0.1 to 10 nM for the first, 0.1 to 10 nM for the second.

Compared with CN(C)Cc1cc(-c2cc(-c3ccc4c(c3)CCNC4=O)c(N)nc2F)ccc1N1CCSCC1 [I-487, 6-(2-amino-5-(3-((dimethylamino)methyl)-4-thiomorpholinophenyl)-6-fluoropyridin-3-yl)-3,4-dihydroisoquinolin-1(2H)-one], Nc1nc(F)c(-c2ccc(N3CCOCC3)c(CN3CCCC3)c2)cc1-c1ccc2c(c1)CCNC2=O [I-491, 6-(2-amino-6-fluoro-5-(4-morpholino-3-(pyrrolidin-1-ylmethyl)phenyl)pyridin-3-yl)-3,4-dihydroisoquinolin-1(2H)-one] is higher in IC50: 0.1 to 10 nM for the first, 11 to 100 nM for the second.

Cc1nc2cc(-c3cc(-c4ccc(C5CCOCC5)c(CN(C)C)c4)c(F)nc3N)cc(F)c2c(=O)[nH]1 [I-490, 7-(2-amino-5-(3-((dimethylamino)methyl)-4-(tetrahydro-2H-pyran-4-yl)phenyl)-6-fluoropyridin-3-yl)-5-fluoro-2-methylquinazolin-4(3H)-one] showed an IC50 of 11 to 100 nM.
